Earlier results, collected in patent EP4659594A1, “ORAL PRODUCTS CONTAINING MODIFIED NICOTINE-POLYMER COMPLEX” (Nicoventures Trading Limited, priority 2024, dated 2025).

details: octanol/water; source of the values not stated

In order of rising logP:
1. CCCCCCCS(=O)(=O)O [1-heptanesulfonic acid]  2.0
2. ethyl benzoic acid  2.9
3. CC(C)[C@@H]1CC[C@@H](C)C[C@H]1OC(=O)CCC(=O)O [monomenthyl succinate]  3
4. isopropyl benzoic acid  3.5
5. CCCCCCCCCCCC(=O)O [dodecanoic acid]  4.6
